Assay [1] concerns the target T1, (1,3)-β-D-glucan synthase (GS), catalytic subunit Fks1p (Saccharomyces cerevisiae, UniProt P38631). Nature of the assay: GS activity assay with […] UDP-Glc. It is filed as biochemical.
The target of assay [2] is T1, (1,3)-β-D-glucan synthase (GS), catalytic subunit Fks1p. Nature of the assay: GS activity assay. Type of assay: biochemical.

Molecules are shown by their SMILES.

T1 sequence (P38631 whole entry): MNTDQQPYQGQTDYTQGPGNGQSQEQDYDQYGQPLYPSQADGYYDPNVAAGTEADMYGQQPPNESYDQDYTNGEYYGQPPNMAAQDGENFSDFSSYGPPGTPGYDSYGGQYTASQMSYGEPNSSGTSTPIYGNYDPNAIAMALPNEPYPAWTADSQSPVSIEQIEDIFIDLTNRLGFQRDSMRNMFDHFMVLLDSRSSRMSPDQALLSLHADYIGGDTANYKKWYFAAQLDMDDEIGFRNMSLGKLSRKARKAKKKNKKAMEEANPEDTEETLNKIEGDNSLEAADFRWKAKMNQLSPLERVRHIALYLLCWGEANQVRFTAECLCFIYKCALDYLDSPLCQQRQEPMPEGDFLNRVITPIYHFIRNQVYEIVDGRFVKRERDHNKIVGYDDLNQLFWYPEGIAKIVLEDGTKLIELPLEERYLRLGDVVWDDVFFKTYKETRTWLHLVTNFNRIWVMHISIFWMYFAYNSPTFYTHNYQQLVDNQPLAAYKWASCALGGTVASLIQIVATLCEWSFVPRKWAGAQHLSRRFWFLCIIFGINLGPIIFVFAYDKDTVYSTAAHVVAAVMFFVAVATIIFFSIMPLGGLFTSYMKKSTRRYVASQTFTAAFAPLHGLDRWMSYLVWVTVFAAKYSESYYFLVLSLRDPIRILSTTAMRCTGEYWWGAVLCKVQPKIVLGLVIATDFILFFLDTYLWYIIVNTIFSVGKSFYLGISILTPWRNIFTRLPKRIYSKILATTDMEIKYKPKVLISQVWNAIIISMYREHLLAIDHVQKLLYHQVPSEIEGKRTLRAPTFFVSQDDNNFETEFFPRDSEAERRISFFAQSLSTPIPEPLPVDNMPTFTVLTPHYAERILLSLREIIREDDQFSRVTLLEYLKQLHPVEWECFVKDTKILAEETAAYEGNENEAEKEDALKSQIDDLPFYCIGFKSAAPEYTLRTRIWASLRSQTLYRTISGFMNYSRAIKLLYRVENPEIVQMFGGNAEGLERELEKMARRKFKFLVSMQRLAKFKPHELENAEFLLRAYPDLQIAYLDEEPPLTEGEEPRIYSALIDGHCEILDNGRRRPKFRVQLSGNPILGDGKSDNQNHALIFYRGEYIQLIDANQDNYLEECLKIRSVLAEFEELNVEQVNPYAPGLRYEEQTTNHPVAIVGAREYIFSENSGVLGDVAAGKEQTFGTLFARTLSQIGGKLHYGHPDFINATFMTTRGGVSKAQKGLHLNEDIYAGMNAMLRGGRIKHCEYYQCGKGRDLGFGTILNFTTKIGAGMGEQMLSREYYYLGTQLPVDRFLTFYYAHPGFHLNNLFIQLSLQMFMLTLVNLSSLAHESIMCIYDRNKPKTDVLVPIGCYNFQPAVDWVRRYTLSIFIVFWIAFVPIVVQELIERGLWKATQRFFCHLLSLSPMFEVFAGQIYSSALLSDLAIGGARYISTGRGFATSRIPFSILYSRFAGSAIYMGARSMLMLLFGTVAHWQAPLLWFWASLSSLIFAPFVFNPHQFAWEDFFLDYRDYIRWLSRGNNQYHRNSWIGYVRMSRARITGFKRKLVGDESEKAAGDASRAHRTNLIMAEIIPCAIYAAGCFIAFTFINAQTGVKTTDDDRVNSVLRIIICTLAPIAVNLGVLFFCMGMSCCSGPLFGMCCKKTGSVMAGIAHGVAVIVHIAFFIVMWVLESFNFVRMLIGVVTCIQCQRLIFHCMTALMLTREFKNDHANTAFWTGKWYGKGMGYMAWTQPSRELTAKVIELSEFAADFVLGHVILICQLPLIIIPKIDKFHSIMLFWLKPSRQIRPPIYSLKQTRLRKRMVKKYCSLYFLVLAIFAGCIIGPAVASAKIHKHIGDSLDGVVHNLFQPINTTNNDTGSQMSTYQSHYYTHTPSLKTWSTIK
T1 sequence (P06780 2-206, further chain): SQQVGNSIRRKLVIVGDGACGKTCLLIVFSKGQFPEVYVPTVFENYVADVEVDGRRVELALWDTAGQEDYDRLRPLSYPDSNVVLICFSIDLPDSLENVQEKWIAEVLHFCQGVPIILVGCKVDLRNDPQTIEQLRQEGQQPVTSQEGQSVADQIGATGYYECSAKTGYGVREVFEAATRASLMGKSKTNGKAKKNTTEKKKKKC

In turn, `O=c1ccn([C@@H]2O[C@H](COP(=O)(O)OP(=O)(O)O[C@H]3O[C@H](CO)[C@@H](O)C[C@H]3O)[C@@H](O)[C@H]2O)c(=O)[nH]1` [UDP-3’-dGlc] yielded an IC50 in assay [1] of 2400 ± 200 µM.

Regarding `O=c1ccn([C@@H]2O[C@H](COP(=O)(O)OP(=O)(O)O[C@H]3O[C@H](CO)[C@@H](O)[C@H](F)[C@H]3O)[C@@H](O)[C@H]2O)c(=O)[nH]1` [UDP-3’-F-Glc], in assay [1], 5300 ± 1000 µM corresponded to half-maximal inhibition (IC50).

In turn, `CC[C@H](C)C[C@H](C)CCCCCCCCC(=O)N[C@H]1C[C@@H](O)[C@@H](NCCN)NC(=O)[C@@H]2[C@@H](O)CCN2C(=O)[C@H]([C@H](O)CCN)NC(=O)[C@H]([C@H](O)[C@@H](O)c2ccc(O)cc2)NC(=O)[C@@H]2C[C@@H](O)CN2C(=O)[C@H]([C@@H](C)O)NC1=O` [CFN, caspofungin] had an IC50 in assay [2] of 0.238 µM.

These data come from PMC7015794 (Biochemistry, 2020).
